According to patent US10765114B2, “4-amino-6-(pyridyl and 2-substitutedphenyl)-picolinates and 6-amino-2-(pyridyl and 2-substitutedphenyl)-pyrimidine-4-carboxylates and their use as herbicides” (Dow AgroSciences LLC, priority 2013, dated 2020):

test system: not given; assay: not given; conditions: not given

| melting point | Compound |
| --- | --- |
| 170 to 171 °C | COc1nc(Cl)ccc1-c1cc(N)c(Cl)c(C(=O)O)n1 [Compound 57] |

test system: Key Grass and Sedge Weeds as well as Grass Crops; assay: Post-Emergent Test II (Table 6); format: in vivo; conditions: post-emergence, 336 h, CYPSS, 70 g ai/ha, 14 days after application, read-out: Visual Growth Reduction (%) 14 Days After Application CYPSS
How it was run: (§1)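 Visual injury ratings (0 = no injury, 100 = complete kill) were taken 14 days after treatment relative to untreated plants. Seedlings at the first or second true leaf stage received an overhead spray at 187 L/ha, and solvent-blank sprayed plants served as controls.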

| Compound | pest or weed control at 70 g/ha |
| --- | --- |
| COc1nc(Cl)ccc1-c1cc(N)c(Cl)c(C(=O)O)n1 [Compound 57] | 0 to 29% |

same assay, conditions: post-emergence, 336 h, CYPSS, 140 g ai/ha, 14 days after application, read-out: Visual Growth Reduction (%) 14 Days After Application CYPSS

| Compound | pest or weed control at 140 g/ha |
| --- | --- |
| COc1nc(Cl)ccc1-c1cc(N)c(Cl)c(C(=O)O)n1 [Compound 57] | 0 to 29% |

same assay, conditions: post-emergence, 336 h, DIGSA: crabgrass (Digitaria sanguinalis), 70 g ai/ha, 14 days after application, read-out: Visual Growth Reduction (%) 14 Days After Application DIGSA

| Compound | pest or weed control at 70 g/ha |
| --- | --- |
| COc1nc(Cl)ccc1-c1cc(N)c(Cl)c(C(=O)O)n1 [Compound 57] | 0 to 29% |

same assay, conditions: post-emergence, 336 h, DIGSA: crabgrass (Digitaria sanguinalis), 140 g ai/ha, 14 days after application, read-out: Visual Growth Reduction (%) 14 Days After Application DIGSA

| Compound | pest or weed control at 140 g/ha |
| --- | --- |
| COc1nc(Cl)ccc1-c1cc(N)c(Cl)c(C(=O)O)n1 [Compound 57] | 0 to 29% |

same assay, conditions: post-emergence, 336 h, ECHSS, 70 g ai/ha, 14 days after application, read-out: Visual Growth Reduction (%) 14 Days After Application ECHSS

| Compound | pest or weed control at 70 g/ha |
| --- | --- |
| COc1nc(Cl)ccc1-c1cc(N)c(Cl)c(C(=O)O)n1 [Compound 57] | 0 to 29% |

same assay, conditions: post-emergence, 336 h, ECHSS, 140 g ai/ha, 14 days after application, read-out: Visual Growth Reduction (%) 14 Days After Application ECHSS

| Compound | pest or weed control at 140 g/ha |
| --- | --- |
| COc1nc(Cl)ccc1-c1cc(N)c(Cl)c(C(=O)O)n1 [Compound 57] | 0 to 29% |

same assay, conditions: post-emergence, 336 h, ORYSS (crop), 70 g ai/ha, 14 days after application, read-out: Visual Growth Reduction (%) 14 Days After Application ORYSS

| Compound | pest or weed control at 70 g/ha |
| --- | --- |
| COc1nc(Cl)ccc1-c1cc(N)c(Cl)c(C(=O)O)n1 [Compound 57] | 0 to 29% |

same assay, conditions: post-emergence, 336 h, ORYSS (crop), 140 g ai/ha, 14 days after application, read-out: Visual Growth Reduction (%) 14 Days After Application ORYSS

| Compound | pest or weed control at 140 g/ha |
| --- | --- |
| COc1nc(Cl)ccc1-c1cc(N)c(Cl)c(C(=O)O)n1 [Compound 57] | 0 to 29% |

same assay, conditions: post-emergence, 336 h, SETFA: giant foxtail (Setaria faberi), 70 g ai/ha, 14 days after application, read-out: Visual Growth Reduction (%) 14 Days After Application SETFA

| Compound | pest or weed control at 70 g/ha |
| --- | --- |
| COc1nc(Cl)ccc1-c1cc(N)c(Cl)c(C(=O)O)n1 [Compound 57] | 0 to 29% |

same assay, conditions: post-emergence, 336 h, SETFA: giant foxtail (Setaria faberi), 140 g ai/ha, 14 days after application, read-out: Visual Growth Reduction (%) 14 Days After Application SETFA

| Compound | pest or weed control at 140 g/ha |
| --- | --- |
| COc1nc(Cl)ccc1-c1cc(N)c(Cl)c(C(=O)O)n1 [Compound 57] | 0 to 29% |

same assay, conditions: post-emergence, 336 h, SORVU: grain sorghum (Sorghum vulgare), 70 g ai/ha, 14 days after application, read-out: Visual Growth Reduction (%) 14 Days After Application SORVU

| Compound | pest or weed control at 70 g/ha |
| --- | --- |
| COc1nc(Cl)ccc1-c1cc(N)c(Cl)c(C(=O)O)n1 [Compound 57] | 0 to 29% |

same assay, conditions: post-emergence, 336 h, SORVU: grain sorghum (Sorghum vulgare), 140 g ai/ha, 14 days after application, read-out: Visual Growth Reduction (%) 14 Days After Application SORVU

| Compound | pest or weed control at 140 g/ha |
| --- | --- |
| COc1nc(Cl)ccc1-c1cc(N)c(Cl)c(C(=O)O)n1 [Compound 57] | 0 to 29% |

same assay, conditions: post-emergence, 336 h, TRZSS (crop), 70 g ai/ha, 14 days after application, read-out: Visual Growth Reduction (%) 14 Days After Application TRZSS

| Compound | pest or weed control at 70 g/ha |
| --- | --- |
| COc1nc(Cl)ccc1-c1cc(N)c(Cl)c(C(=O)O)n1 [Compound 57] | 0 to 29% |

same assay, conditions: post-emergence, 336 h, TRZSS (crop), 140 g ai/ha, 14 days after application, read-out: Visual Growth Reduction (%) 14 Days After Application TRZSS

| Compound | pest or weed control at 140 g/ha |
| --- | --- |
| COc1nc(Cl)ccc1-c1cc(N)c(Cl)c(C(=O)O)n1 [Compound 57] | 0 to 29% |

same assay, conditions: post-emergence, 336 h, ZEAMX: maize, corn (Zea mays), 70 g ai/ha, 14 days after application, read-out: Visual Growth Reduction (%) 14 Days After Application ZEAMX

| Compound | pest or weed control at 70 g/ha |
| --- | --- |
| COc1nc(Cl)ccc1-c1cc(N)c(Cl)c(C(=O)O)n1 [Compound 57] | 0 to 29% |

same assay, conditions: post-emergence, 336 h, ZEAMX: maize, corn (Zea mays), 140 g ai/ha, 14 days after application, read-out: Visual Growth Reduction (%) 14 Days After Application ZEAMX

| Compound | pest or weed control at 140 g/ha |
| --- | --- |
| COc1nc(Cl)ccc1-c1cc(N)c(Cl)c(C(=O)O)n1 [Compound 57] | 0 to 29% |

test system: Key Broadleaf Weed and Crop Species; assay: Post-Emergent Test II (Table 5); format: in vivo; conditions: Abutilon theophrasti, post-emergence, 336 h, ABUTH: velvetleaf (Abutilon theophrasti), application rate 70 (kg ai/ha; footnote: g ai/ha), read-out: Visual Growth Reduction (%) 14 Days After Application ABUTH
How it was run: as §1

| Compound | pest or weed control at 70 g/ha |
| --- | --- |
| COc1nc(Cl)ccc1-c1cc(N)c(Cl)c(C(=O)O)n1 [Compound 57] | 85 to 94% |

same assay, conditions: Abutilon theophrasti, post-emergence, 336 h, ABUTH: velvetleaf (Abutilon theophrasti), application rate 140 (kg ai/ha; footnote: g ai/ha), read-out: Visual Growth Reduction (%) 14 Days After Application ABUTH

| Compound | pest or weed control at 140 g/ha |
| --- | --- |
| COc1nc(Cl)ccc1-c1cc(N)c(Cl)c(C(=O)O)n1 [Compound 57] | 85 to 94% |

same assay, conditions: Amaranthus retroflexus, post-emergence, 336 h, AMARE: redroot pigweed (Amaranthus retroflexus), application rate 70 (kg ai/ha; footnote: g ai/ha), read-out: Visual Growth Reduction (%) 14 Days After Application AMARE

| Compound | pest or weed control at 70 g/ha |
| --- | --- |
| COc1nc(Cl)ccc1-c1cc(N)c(Cl)c(C(=O)O)n1 [Compound 57] | 95 to 100% |

same assay, conditions: Amaranthus retroflexus, post-emergence, 336 h, AMARE: redroot pigweed (Amaranthus retroflexus), application rate 140 (kg ai/ha; footnote: g ai/ha), read-out: Visual Growth Reduction (%) 14 Days After Application AMARE

| Compound | pest or weed control at 140 g/ha |
| --- | --- |
| COc1nc(Cl)ccc1-c1cc(N)c(Cl)c(C(=O)O)n1 [Compound 57] | 95 to 100% |

same assay, conditions: Brassica napus, post-emergence, 336 h, BRSSS: oilseed rape, canola (Brassica napus), application rate 70 (kg ai/ha; footnote: g ai/ha), read-out: Visual Growth Reduction (%) 14 Days After Application BRSSS

| Compound | pest or weed control at 70 g/ha |
| --- | --- |
| COc1nc(Cl)ccc1-c1cc(N)c(Cl)c(C(=O)O)n1 [Compound 57] | 75 to 84% |

same assay, conditions: Brassica napus, post-emergence, 336 h, BRSSS: oilseed rape, canola (Brassica napus), application rate 140 (kg ai/ha; footnote: g ai/ha), read-out: Visual Growth Reduction (%) 14 Days After Application BRSSS

| Compound | pest or weed control at 140 g/ha |
| --- | --- |
| COc1nc(Cl)ccc1-c1cc(N)c(Cl)c(C(=O)O)n1 [Compound 57] | 75 to 84% |

same assay, conditions: Chenopodium album, post-emergence, 336 h, CHEAL: lambsquarters (Chenopodium album), application rate 70 (kg ai/ha; footnote: g ai/ha), read-out: Visual Growth Reduction (%) 14 Days After Application CHEAL

| Compound | pest or weed control at 70 g/ha |
| --- | --- |
| COc1nc(Cl)ccc1-c1cc(N)c(Cl)c(C(=O)O)n1 [Compound 57] | 85 to 94% |

same assay, conditions: Chenopodium album, post-emergence, 336 h, CHEAL: lambsquarters (Chenopodium album), application rate 140 (kg ai/ha; footnote: g ai/ha), read-out: Visual Growth Reduction (%) 14 Days After Application CHEAL

| Compound | pest or weed control at 140 g/ha |
| --- | --- |
| COc1nc(Cl)ccc1-c1cc(N)c(Cl)c(C(=O)O)n1 [Compound 57] | 85 to 94% |

same assay, conditions: Euphorbia heterophylla, post-emergence, 336 h, EPHHL: wild poinsettia (Euphorbia heterophylla), application rate 70 (kg ai/ha; footnote: g ai/ha), read-out: Visual Growth Reduction (%) 14 Days After Application EPHHL

| Compound | pest or weed control at 70 g/ha |
| --- | --- |
| COc1nc(Cl)ccc1-c1cc(N)c(Cl)c(C(=O)O)n1 [Compound 57] | 0 to 29% |

same assay, conditions: Euphorbia heterophylla, post-emergence, 336 h, EPHHL: wild poinsettia (Euphorbia heterophylla), application rate 140 (kg ai/ha; footnote: g ai/ha), read-out: Visual Growth Reduction (%) 14 Days After Application EPHHL

| Compound | pest or weed control at 140 g/ha |
| --- | --- |
| COc1nc(Cl)ccc1-c1cc(N)c(Cl)c(C(=O)O)n1 [Compound 57] | 0 to 29% |

same assay, conditions: Helianthus annuus, post-emergence, 336 h, HELAN: sunflower (Helianthus annuus), application rate 70 (kg ai/ha; footnote: g ai/ha), read-out: Visual Growth Reduction (%) 14 Days After Application HELAN

| Compound | pest or weed control at 70 g/ha |
| --- | --- |
| COc1nc(Cl)ccc1-c1cc(N)c(Cl)c(C(=O)O)n1 [Compound 57] | 85 to 94% |

same assay, conditions: Helianthus annuus, post-emergence, 336 h, HELAN: sunflower (Helianthus annuus), application rate 140 (kg ai/ha; footnote: g ai/ha), read-out: Visual Growth Reduction (%) 14 Days After Application HELAN

| Compound | pest or weed control at 140 g/ha |
| --- | --- |
| COc1nc(Cl)ccc1-c1cc(N)c(Cl)c(C(=O)O)n1 [Compound 57] | 85 to 94% |

same assay, conditions: Viola tricolor, post-emergence, 336 h, VIOTR: wild pansy (Viola tricolor), application rate 70 (kg ai/ha; footnote: g ai/ha), read-out: Visual Growth Reduction (%) 14 Days After Application VIOTR

| Compound | pest or weed control at 70 g/ha |
| --- | --- |
| COc1nc(Cl)ccc1-c1cc(N)c(Cl)c(C(=O)O)n1 [Compound 57] | 0 to 29% |

same assay, conditions: Viola tricolor, post-emergence, 336 h, VIOTR: wild pansy (Viola tricolor), application rate 140 (kg ai/ha; footnote: g ai/ha), read-out: Visual Growth Reduction (%) 14 Days After Application VIOTR

| Compound | pest or weed control at 140 g/ha |
| --- | --- |
| COc1nc(Cl)ccc1-c1cc(N)c(Cl)c(C(=O)O)n1 [Compound 57] | 0 to 29% |
